Measurements taken from ChEMBL document CHEMBL1201862, “PubChem BioAssay data set” (2004).
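Following 48 hours of exposure in 96-well plates, responses at five concentrations were used to interpolate endpoints linearly. Here, GI50 denotes the concentration required for 50% inhibition of growth.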 Calls of active or inactive are those of the source. No stated cut-off is given here; in the data, active = GI50 up to about 1.1 µM and inactive = higher.

Experiments:
Test in all cases: DTP human tumour cell line panel, 48 h
SR = test system: SR
SK-MEL-28 = test system: SK-MEL-28
KM12 = test system: KM12
SNB-78 = test system: SNB-78
SF-295 = test system: SF-295
MOLT-4 = test system: MOLT-4
OVCAR-3 = test system: OVCAR-3
RPMI-8226 = test system: RPMI-8226
SK-MEL-2 = test system: SK-MEL-2
NCI-H226 = test system: NCI-H226
BT-549 = test system: BT-549
PC-3 = test system: PC-3
UACC-257 = test system: UACC-257
RXF 393 = test system: RXF 393
T47D = test system: T47D
SF-268 = test system: SF-268
HCT-15 = test system: HCT-15
NCI/ADR-RES = test system: NCI/ADR-RES
SNB-75 = test system: SNB-75
DU-145 = test system: DU-145

Row | SMILES | GI50 (SR) | GI50 (SK-MEL-28) | GI50 (KM12) | GI50 (SNB-78) | GI50 (SF-295) | GI50 (MOLT-4) | GI50 (OVCAR-3) | GI50 (RPMI-8226) | GI50 (SK-MEL-2) | GI50 (NCI-H226) | GI50 (BT-549) | GI50 (PC-3) | GI50 (UACC-257) | GI50 (RXF 393) | GI50 (T47D) | GI50 (SF-268) | GI50 (HCT-15) [µM] | GI50 (NCI/ADR-RES) | GI50 (SNB-75) | GI50 (DU-145)
1 | O=S1(=O)CS(=O)(=O)OCCO1 | 153 µM (inactive) | 69 µM (inactive) | 51.4 µM (inactive) | 17.4 µM (inactive) | 13.2 µM (inactive) | 10.4 µM (inactive) | 40.3 µM (inactive) | 62.5 µM (inactive) | 50.8 µM (inactive) | 41.4 µM (inactive) | 37.8 µM (inactive) | 82 µM (inactive) | 50.5 µM (inactive) | 41.6 µM (inactive) | 53.1 µM (inactive) | 15.1 µM (inactive) | 48.6 | 50.9 µM (inactive) | 14 µM (inactive) | 51.1 µM (inactive)
2 | CN(C)CC1CCCC1=O (stereo not given) | 0.0479 µM (active) | 2.98 µM (inactive) | 1.66 µM (inactive) | 2.48 µM (inactive) | 19.8 µM (inactive) | 0.144 µM (active) | 1.51 µM (inactive) | 0.0502 µM (active) | 5.21 µM (inactive) | 14.4 µM (inactive) | 4.97 µM (inactive) | 8.09 µM (inactive) | 1.5 µM (inactive) | 2.55 µM (inactive) | 3.65 µM (inactive) | 5.85 µM (inactive) | 0.378 | 20.7 µM (inactive) | 3.78 µM (inactive) | 17.5 µM (inactive)
